Data published in article PMC5808360, “Neutral Porphyrin Derivative Exerts Anticancer Activity by Targeting Cellular Topoisomerase I (Top1) and Promotes Apoptotic Cell Death without Stabilizing Top1-DNA Cleavage Complexes” (Journal of Medicinal Chemistry, 2017).
Peptide text beside a SMILES is read from it. * marks the point of attachment. Cbz = O=C(OCc1ccccc1)*

Tests used:
[1] = biological target: T1, EGFP-human Top1 in MCF7 cells (Homo sapiens, UniProt P11387); assay: FRAP of EGFP-Top1 in live MCF7 cells; assay type: cell-based; conditions: 5 μM, 10 min
T1 construct: expressed in transfected cells; host or cells: MCF7 cells, transient transfection (Lipofectamine 2000)
T1 sequence (P11387 1-765): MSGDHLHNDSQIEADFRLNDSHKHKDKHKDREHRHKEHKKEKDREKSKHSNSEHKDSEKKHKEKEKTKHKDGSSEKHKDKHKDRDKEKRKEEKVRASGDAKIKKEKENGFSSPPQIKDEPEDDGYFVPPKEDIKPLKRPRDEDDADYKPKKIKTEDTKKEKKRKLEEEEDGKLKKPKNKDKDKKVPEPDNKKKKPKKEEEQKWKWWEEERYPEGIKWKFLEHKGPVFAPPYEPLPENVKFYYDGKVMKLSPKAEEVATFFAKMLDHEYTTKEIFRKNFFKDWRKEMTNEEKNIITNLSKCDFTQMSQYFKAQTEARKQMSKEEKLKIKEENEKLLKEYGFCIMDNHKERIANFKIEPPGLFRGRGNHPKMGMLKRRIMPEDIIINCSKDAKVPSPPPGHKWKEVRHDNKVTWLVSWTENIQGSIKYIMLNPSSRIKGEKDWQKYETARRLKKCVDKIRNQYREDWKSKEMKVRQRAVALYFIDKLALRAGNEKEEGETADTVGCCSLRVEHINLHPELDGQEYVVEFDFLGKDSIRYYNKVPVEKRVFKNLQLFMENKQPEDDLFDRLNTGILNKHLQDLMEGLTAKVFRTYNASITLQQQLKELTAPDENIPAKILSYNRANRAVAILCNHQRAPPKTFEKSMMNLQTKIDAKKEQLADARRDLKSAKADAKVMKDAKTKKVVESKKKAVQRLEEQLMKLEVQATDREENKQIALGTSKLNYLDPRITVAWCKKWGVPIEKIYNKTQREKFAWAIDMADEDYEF
Procedure: To obtain direct evidence for compound 8 mediated inhibition of Top1cc formation in live human carcinoma cells, we used MCF7 cells and transiently expressed EGFP-Top1. Live cells expressing ectopic Top1 were analyzed under laser confocal microscopy equipped with fluorescence recovery after photobleaching (FRAP) technology.[40]−[42]
Photobleaching experiments were performed as described formerly[40]−[42] using Andor Spining disk inverted confocal laser-scanning microscope equipped with a 60×/1.42 NA oil-immersion objective (Olympus) and with a CO2-controlled on-stage heated environmental chamber set to 37 °C. FRAP analyses were carried out with living MCF7 cells ectopically expressing EGFP-human Top1 grown on chamber cover glass (Genetix, India) and drug treated as indicated. For FRAP analysis, a subnuclear spot was bleached for 30 ms by solid-state laser line (488 nm for EGFP) adapted to the fluorescent protein of interest and FRAP curves were generated individually normalized to the prebleach signal as described previously.[42]

[2] = biological target: T2, cellular Top1 in MCF7 cells (Homo sapiens, UniProt P11387); assay: Western blot of Top1 in whole cell extracts of treated MCF7 cells; assay type: cell-based; conditions: MG132 100 nM preincubated 4 h, then compound 8 10 μM 12 h
T2 construct: endogenous in cells; host or cells: MCF7 cells
T2 sequence (P11387 2-765 limits assumed): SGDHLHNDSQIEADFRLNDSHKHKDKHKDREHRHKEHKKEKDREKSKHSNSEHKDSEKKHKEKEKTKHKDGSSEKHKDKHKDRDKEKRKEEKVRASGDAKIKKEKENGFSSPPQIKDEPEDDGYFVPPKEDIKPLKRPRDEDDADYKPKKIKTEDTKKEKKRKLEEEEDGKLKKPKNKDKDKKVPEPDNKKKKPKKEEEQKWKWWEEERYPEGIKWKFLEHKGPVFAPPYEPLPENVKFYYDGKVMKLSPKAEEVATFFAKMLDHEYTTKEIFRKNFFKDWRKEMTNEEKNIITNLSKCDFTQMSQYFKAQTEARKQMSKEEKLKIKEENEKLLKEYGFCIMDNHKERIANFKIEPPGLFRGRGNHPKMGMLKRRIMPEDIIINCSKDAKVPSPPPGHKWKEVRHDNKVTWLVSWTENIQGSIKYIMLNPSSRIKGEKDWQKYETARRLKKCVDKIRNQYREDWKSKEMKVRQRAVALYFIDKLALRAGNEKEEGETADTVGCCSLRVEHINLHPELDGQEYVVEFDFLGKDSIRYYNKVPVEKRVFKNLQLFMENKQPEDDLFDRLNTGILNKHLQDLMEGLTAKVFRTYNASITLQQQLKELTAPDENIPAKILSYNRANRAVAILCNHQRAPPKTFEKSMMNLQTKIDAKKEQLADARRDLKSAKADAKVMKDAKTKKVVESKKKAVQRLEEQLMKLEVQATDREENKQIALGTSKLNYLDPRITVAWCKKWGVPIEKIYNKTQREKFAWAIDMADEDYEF
Procedure: Because compound 8 binds with free Top1 (Figure 3) and inhibits Top1cc formation in live cells (Figure 2E), we examined the impact of compound 8 on endogenous Top1. Cellular lysates were prepared from MCF7 cells treated with compound 8 for indicated times and were analyzed by Western blotting. […] Because proteasome has been implicated for Top1 degradation,[7],[9],[45] we used proteasome specific inhibitor (MG132) to investigate Top1 proteolysis in compound 8 treated cells.
Preparation of whole cell extracts from MCF7 cells and immunoblotting were carried out as described.[6],[40],[41] Immunoreactivity was detected using ECL chemiluminescence reaction (Amersham) under ChemiDoc MP system (Bio-Rad, USA).

MCF7 cells [3] = assay: Measurement of intracellular ROS (H2DCFDA); assay type: cell-based, human; conditions: NAC 10 mM pretreatment 30 min before compound 8 10 μM
Description: Next, to investigate the mechanistic link between compound 8 induced cellular Top1 inhibition (Figure 1), degradation (Figure 4A and Figure 4B), and activation of apoptosis (Figure 4C), we tested reactive oxygen species (ROS) formation and accumulation of oxidative DNA fragmentation[15],[17],[46] in compound 8 treated MCF7 cells. […] We observed a marked elevation (∼3- to 5-fold) in ROS accumulation (Figure 5A) under similar conditions that activate PARP1 cleavage (Figure 4C). Nonetheless, MCF7 cells pretreated with N-acetylcysteine (NAC), a specific inhibitor of ROS, reduced compound 8 induced ROS generation by ∼3-fold (Figure 5A).
Intracellular ROS was detected in drug-treated MCF7 cells with or without pretreatment of N-acetyl-L-cysteine (NAC) for indicated time as described.[13],[46] Briefly, cells were washed and resuspended in 500 μL of 1× PBS and were loaded with 2 μg/mL of H2DCFDA (Molecular Probes) for 30 min, and green fluorescence of 2,7-dichlorofluorescein was measured at 515 nm by spectrofluorometer.

MCF7 cells [4] = assay: Alkaline comet assay; assay type: cell-based, human; conditions: NAC 10 mM pretreatment 30 min before compound 8
Description: Therefore, we directly measured compound 8 induced DNA strand breaks at single cellular level by using alkaline comet assays (Figure 5B,C) and simultaneously measured the apoptotic cell death by immunofluorescence staining of the apoptosis marker phosphatidylserine with annexin V-FITC antibody (Figure 5D,E). Compound 8 treated MCF7 cells accumulate ∼8-fold increase in DNA strand breaks (Figure 5B and Figure 5C) compared to untreated cells, resulting in ∼7-fold elevation in compound 8 induced annexin V(+) apoptotic cells (Figure 5D and Figure 5E). […] Therefore, we conclude that compound 8 triggers reactive oxygen species induced DNA degradation and apoptotic cell death without stabilizing Top1-DNA cleavage complexes.
To detect the levels of drug-induced DNA breaks, after treatment MCF7 cells were subjected to alkaline comet assays according to the manufacturer’s instructions (Trevigen, USA) and comet length was measured and was scored for at least 50 cells. Distributions of comet lengths were compared using the Student’s t-test as described previously.[13],[40],[50]

[5] = test system: relaxed pBS (SK+) plasmid DNA; assay: Topoisomerase I unwinding assay (DNA intercalation); conditions: m-AMSA and etoposide 50 and 300 μM; compound 8 50, 100, 300 μM
Procedure: Therefore, compound 8 interacts in reversible manner with Top1 to inhibit the plasmid relaxation activity (Figure 1).
The competence of the drug to intercalate into plasmid DNA was determined by Top1 unwinding assay.[36],[44] Assays were performed with 50 fmol of pBluscript (SK+) DNA in the presence or absence of compound 8, m-AMSA, and etoposide at indicated concentrations. Excess of DNA topoisomerase I was reacted with supercoiled plasmid DNA to generate relaxed DNA for the unwinding assays. The relaxed DNA was purified by proteolytic digestion with proteinase K at 37 °C, followed by phenol/chloroform extraction and ethanol precipitation. The unwinding assays were carried out at 37 °C for 15 min with independent compounds and were analyzed by 1% agarose gel as described above.

## CC[C@@]1(O)C(=O)OCc2c1cc1n(c2=O)Cc2cc3ccccc3nc2-1 [CPT, Camptothecin, reference compound]
[1]
  Increase of Top1 immobile population (FRAP): 40–50%

## CC(C)C[C@@H](C=O)NC(=O)[C@H](CC(C)C)NC(=O)[C@H](CC(C)C)NC(=O)OCc1ccccc1 [MG132, reference compound] (Cbz-Leu-Leu-Leu-aldehyde)
[2]
  Effect on 8-induced degradation of Top1: abrogated

## CC(=O)N[C@@H](CS)C(=O)O [NAC, N-acetyl-L-cysteine]
MCF7 cells [3]
  Reduction of compound 8 induced ROS generation: ~3 fold
MCF7 cells [4]
  Decrease in compound 8 induced DNA breaks: ~4 fold

## COc1cc([C@@H]2c3cc4c(cc3[C@@H](O[C@@H]3O[C@@H]5CO[C@@H](C)O[C@H]5[C@H](O)[C@H]3O)[C@H]3COC(=O)[C@H]23)OCO4)cc(OC)c1O [etoposide]
[5]
  Negative supercoiling of relaxed plasmid DNA (intercalation): failed to show such effect

## COc1cc(NS(C)(=O)=O)ccc1Nc1c2ccccc2nc2ccccc12 [m-AMSA]
[5]
  Negative supercoiling of relaxed plasmid DNA (intercalation): incites a net negative supercoiling of the relaxed plasmid DNA
